One data set has as its system HBV. Description: HBV inhibitory activity: HBV DNA in the culture medium of HepG2.2.15 cells by q-PCR. Type of data set: cell-based. The note with it: Hepatitis B virus, HepG2.2.15, 144 h, HepG2.2.15 cells, 6 days of compound treatment, HBV DNA in culture medium by q-PCR, highest concentration 10 μM; read-out: EC50. The gist of the method: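 Supernatant HBV DNA quantified by q-PCR after a 6-day compound exposure, with one mid-course medium change, of HepG2.2.15 cells (stably integrated HBV; 40,000 per well, 2% FBS). Eight-point 3-fold series topped at 10 μM for antiviral EC50; separate plates of 5,000 cells per well with 100 μM top give CC50.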

A short description of data set [1]: Cytotoxicity determination in HepG2.2.15 cells (CCK-8). The note with it: human, 6 days of compound treatment, CCK-8, highest concentration 100 μM. Type of data set: cell-based. The gist of the method:
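CC50 is from CCK-8 absorbance (450 nm, 630 nm reference) after 2.5 h with reagent. Before that, compounds were applied for six days, top concentration 100 μM, eight threefold dilutions, one mid-course medium change, to stably HBV-integrated HepG2.2.15 cells plated at 5,000/well in 2% FBS.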

With `CNS(=O)(=O)[C@H]1CC[C@H](C2=C(C(=O)OC)C(c3ccc(F)c(F)c3Cl)N=C(c3ncc(F)cc3F)N2)CC1` (single isomer, unassigned) [Compound 168A, methyl 4-(2-chloro-3,4-difluorophenyl)-2-(3,5-difluoropyridin-2-yl)-6-((trans)-4-(N-methylsulfamoyl)cyclohexyl)-1,4-dihydropyrimidine-5-carboxylate], the 50% effective concentration (EC50) in the data set on HBV was 0.006 µM. Moreover, in data set [1], the CC50 at 6 days was 12.5 µM.
For the compound `CCOC(=O)C1=C([C@H]2CC[C@H](C(=O)O)CC2)NC(c2nccs2)=NC1c1ccc(F)cc1Br` (stereo partly drawn) [Compound 156], the EC50 with HBV came out at 0.071 µM. The compound further registered a half-maximal cytotoxic concentration (CC50) at 6 days in data set [1] of 34.9 µM.
Turning to `COC(=O)C1=C(C2CCN(S(=O)(=O)c3cnn(C[C@H](C)O)c3)CC2)NC(c2nccs2)=NC1c1ccc(F)cc1Cl` (stereo partly drawn) [Compound 360D, methyl 4-(2-chloro-4-fluorophenyl)-6-(1-((1-((S)-2-hydroxypropyl)-1H-pyrazol-4-yl)sulfonyl)piperidin-4-yl)-2-(thiazol-2-yl)-1,4-dihydropyrimidine-5-carboxylate], in the data set on HBV, the EC50 amounted to 0.105 µM. The compound further had a cytotoxic concentration (CC50) at 6 days in data set [1] of 20.4 µM.
The like results for `COC(=O)C1=C(C2CCCN2S(C)(=O)=O)NC(c2nccs2)=NC1c1ccc(F)cc1Cl` (single isomer, unassigned) [Compound 69C, Methyl 4-(2-chloro-4-fluorophenyl)-6-(1-(methylsulfonyl)-pyrrolidin-2-yl)-2-(thiazol-2-yl)-1,4-dihydropyrimidine-5-carboxylate] were, in that order, 0.448 µM and 11.9 µM.
For `COC(=O)C1=C(C2CCN(S(=O)(=O)c3cnn(CCC(C)(C)O)c3)CC2)NC(c2nccs2)=NC1c1ccc(F)cc1Cl` (stereo not drawn) [Compound 458, Methyl 4-(2-chloro-4-fluorophenyl)-6-(1-((1-(3-hydroxy-3-methylbutyl)-1H-pyrazol-4-yl)sulfonyl)piperidin-4-yl)-2-(thiazol-2-yl)-1,4-dihydropyrimidine-5-carboxylate] the same measures were less than 0.0046 µM and 15.5 µM.
The like results for `COCCOCCS(=O)(=O)N1CCC(C2=C(C(=O)OC)C(c3ccc(F)cc3Cl)N=C(c3nccs3)N2)CC1` (stereo not drawn) [Compound 464, Methyl 4-(2-chloro-4-fluorophenyl)-6-(1-((2-(2methoxyethoxy)ethyl)sulfonyl)piperidin-4-yl)-2-(thiazol-2-yl)-1,4-dihydropyrimidine-5-carboxylate] were, in that order, less than 0.0046 µM and 29.4 µM.
For `COC(=O)C1=C(C2CCN(C(N)=O)CC2)NC(c2nccs2)=NC1c1ccc(F)cc1Cl` (stereo not drawn) [Compound 303, Methyl 6-(1-carbamoylpiperidin-4-yl)-4-(2-chloro-4-fluorophenyl)-2-(thiazol-2-yl)-1,4-dihydropyrimidine-5-carboxylate], the concentration giving a half-maximal response (EC50) in the data set on HBV worked out at 0.054 µM. The CC50 at 6 days in data set [1] is more than 100 µM.
The like results for `COC(=O)C1=C(C2CCN(S(=O)(=O)[C@H]3CC[C@H](C(=O)O)CC3)CC2)NC(c2nccs2)=NC1c1ccc(F)cc1Cl` (relative stereo) [Compound 313B, (trans)-4-((4-(6-(2-Chloro-4-fluorophenyl)-5-(methoxycarbonyl)-2-(thiazol-2-yl)-3,6-dihydropyrimidin-4-yl)piperidin-1-yl)sulfonyl)-cyclohexanecarboxylic Acid] were, in that order, 0.011 µM and 34.6 µM.
For `COC(=O)C1=C(C2CCOCC2)NC(c2nccs2)=NC1c1ccc(F)cc1Cl` (single isomer, unassigned) [Compound 51B, Methyl 4-(2-chloro-4-fluorophenyl)-6-(tetrahydro-2H-pyran-4-yl)-2-(thiazol-2-yl)-1,4-dihydropyrimidine-5-carboxylate] the same measures were 0.467 µM and more than 100 µM.

These data come from patent publication US11639350B2, “Heteroaryldihydropyrimidine derivatives and methods of treating hepatitis B infections” (Janssen Pharmaceutica NV, priority 2018, dated 2023).
